Source: article PMC5341070, “Small molecule inhibitors block Gas6-inducible TAM activation and tumorigenicity” (Scientific Reports, 2017)

Molecular target: T1, Axl (Homo sapiens, UniProt P30530+Q14393)
T1 construct: extracellular and trans-membrane domain of Axl fused to IFN-γR1 intracellular domain; with Gas6
Assay: Gas6-induced hAxl/IFN-γR1 CHO reporter (pSTAT1) inhibition; sAxl-Gas6 pull-down partially inhibited
Type: cell-based

T1 sequence (P30530 26-472 limits assumed): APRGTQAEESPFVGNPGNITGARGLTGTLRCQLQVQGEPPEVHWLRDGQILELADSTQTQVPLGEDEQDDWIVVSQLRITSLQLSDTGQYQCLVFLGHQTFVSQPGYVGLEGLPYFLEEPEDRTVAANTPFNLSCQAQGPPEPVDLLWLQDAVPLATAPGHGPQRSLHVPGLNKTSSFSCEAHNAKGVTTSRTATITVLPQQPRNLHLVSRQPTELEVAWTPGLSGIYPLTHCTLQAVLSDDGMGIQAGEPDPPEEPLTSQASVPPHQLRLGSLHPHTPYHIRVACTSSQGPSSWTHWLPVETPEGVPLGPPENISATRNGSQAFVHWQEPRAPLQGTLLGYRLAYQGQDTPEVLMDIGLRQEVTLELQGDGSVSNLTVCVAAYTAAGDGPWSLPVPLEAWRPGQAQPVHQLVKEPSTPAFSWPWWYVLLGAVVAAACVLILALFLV
T1 sequence (Q14393 31-678): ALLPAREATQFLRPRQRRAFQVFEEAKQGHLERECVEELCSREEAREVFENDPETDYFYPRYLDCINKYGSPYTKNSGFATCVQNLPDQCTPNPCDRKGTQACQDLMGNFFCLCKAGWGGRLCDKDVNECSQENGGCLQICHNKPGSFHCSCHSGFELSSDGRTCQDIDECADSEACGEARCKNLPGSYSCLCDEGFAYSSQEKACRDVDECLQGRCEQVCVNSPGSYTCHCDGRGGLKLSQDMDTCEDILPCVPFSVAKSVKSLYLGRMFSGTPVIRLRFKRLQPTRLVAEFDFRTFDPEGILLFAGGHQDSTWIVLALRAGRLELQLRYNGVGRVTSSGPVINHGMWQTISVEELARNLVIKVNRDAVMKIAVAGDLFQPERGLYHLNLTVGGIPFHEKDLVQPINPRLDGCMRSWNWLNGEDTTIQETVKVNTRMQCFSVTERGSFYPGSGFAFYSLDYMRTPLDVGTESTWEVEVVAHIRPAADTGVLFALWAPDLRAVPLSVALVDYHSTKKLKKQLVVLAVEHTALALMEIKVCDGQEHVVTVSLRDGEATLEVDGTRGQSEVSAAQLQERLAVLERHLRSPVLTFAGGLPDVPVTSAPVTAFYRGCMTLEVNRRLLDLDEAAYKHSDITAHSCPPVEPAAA

Q: How did the IC50 turn out when Cc1noc(C)c1CSc1ccccc1C(=O)N1CCN(c2cccc(C(F)(F)F)c2)CC1 [RU-302] was run?
A: low micromolar
